We go through 13 compounds from US12371454B2, “Cyclic peptide compound having Kras inhibitory action” (priority 2019, dated 2025).

Each structure is given as a SMILES string. Positions of bridges follow the written chain, without caps; N, C: chain ends. Non-standard residues stand in square brackets, D forms with d. Residues, ends and D or L forms follow the SMILES beside them. *: point of attachment. hPhe(3-Cl-4-CF3) = N[C@@H](CCc1ccc(C(F)(F)F)c(Cl)c1)C(=O)O; hPhe(3-F,4-CF3) = N[C@@H](CCc1ccc(C(F)(F)F)c(F)c1)C(=O)O; NMePhe(4-CF3) = CN[C@@H](Cc1ccc(C(F)(F)F)cc1)C(=O)O; NMePhe(3-Me) = CN[C@@H](Cc1cccc(C)c1)C(=O)O; NMePhe(4-Me) = CN[C@@H](Cc1ccc(C)cc1)C(=O)O; NMeAla(cPent) = CN[C@@H](CC1CCCC1)C(=O)O; NMeGly(cPent) = CN[C@H](C(=O)O)C1CCCC1; NMeCha = CN[C@@H](CC1CCCCC1)C(=O)O; NMeD = CN[C@@H](CC(=O)O)C(=O)O; NMeL = CN[C@@H](CC(C)C)C(=O)O; NMeV = CN[C@H](C(=O)O)C(C)C; d(β3hA) = C[C@@H](N)CC(=O)O; NMeS = CN[C@@H](CO)C(=O)O; NMeA = CN[C@@H](C)C(=O)O; Piperidide = C1CCN(*)CC1; Pra = C#CC[C@H](N)C(=O)O; dNMeA = CN[C@H](C)C(=O)O; Ac5c = NC1(C(=O)O)CCCC1; Aze = O=C(O)[C@@H]1CCN1; CH2CMe2OH = CC(C)(O)C*; Aib = CC(C)(N)C(=O)O; Isopentyl = CC(C)CC*; Sar = CNCC(=O)O

The assay concerns the target T1, Kras and SOS1 (biotin-tagged human Kras loaded with GDP, His-tagged human SOS1) (Homo sapiens, UniProt P01116, G12D).
T1 construct: made in house; host or cells: E. coli (stated for Kras only)
The assay can be described thus: Protein-protein interaction inhibition between Kras and SOS1 (KrasGl2D-SOS PPI) using AlphaScreen. It counts as binding. The note with it: AlphaScreen; biotin-tagged human Kras loaded with GDP, His-tagged human SOS1; read-out: KRAS G12D-SOS PPI IC50. In short, it runs like this:
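Kras was produced in E. coli, purified, then loaded with GDP. It was paired via streptavidin acceptor beads with His-SOS1 held on nickel donor beads, and proximity signal at 520-620 nm was read after 680 nm illumination.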

T1 sequence (P01116 1-188 isoform P01116-2 G12D): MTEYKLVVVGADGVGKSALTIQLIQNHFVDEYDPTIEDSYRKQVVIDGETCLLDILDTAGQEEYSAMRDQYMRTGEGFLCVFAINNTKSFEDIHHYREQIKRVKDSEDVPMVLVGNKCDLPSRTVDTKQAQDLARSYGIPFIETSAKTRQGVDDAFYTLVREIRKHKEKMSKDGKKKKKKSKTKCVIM

`CC[C@H](C)[C@@H]1NC(=O)[C@H](CC(C)C)N(C)C(=O)C[C@@H](C)NC(=O)[C@H](C2CCCC2)N(C)C(=O)C2(CCCC2)NC(=O)[C@@H]2CCCN2C(=O)[C@H](CCc2ccc(C(F)(F)F)c(Cl)c2)NC(=O)[C@@H](C)N(C)C(=O)[C@H](CC2CCCCC2)N(C)C(=O)CN(C)C(=O)CN(C)C1=O` [Compound 1530] (cyclo([Ac5c][NMeGly(cPent)][d(β3hA)][NMeL]I[Sar][Sar][NMeCha][dNMeA][hPhe(3-Cl-4-CF3)]P)): the IC50 amounted to 130 nM.
Take `CC[C@H](C)[C@@H]1NC(=O)[C@H](CC(C)C)N(C)C(=O)C[C@@H](C(=O)N2CCCCC2)N(C)C(=O)[C@H](CC(C)C)N(C)C(=O)C(C)(C)NC(=O)[C@H](COCC(C)(C)O)N(C)C(=O)[C@H](CCc2ccc(C(F)(F)F)c(F)c2)NC(=O)CN(C)C(=O)[C@H](COCCC(C)C)N(C)C(=O)CN(C)C(=O)CN(C)C1=O` [Compound 1532] ([NMeL]I[Sar][Sar][NMeS](Isopentyl)[Sar][hPhe(3-F,4-CF3)][NMeS](CH2CMe2OH)[Aib][NMeL][NMeD]-Piperidide; lactam N-11): the IC50 amounted to 4.8 nM.
The value for `C#CC[C@@H]1NC(=O)[C@H](CC(C)C)N(C)C(=O)C[C@@H](C)NC(=O)[C@H](CC(C)C)N(C)C(=O)C2(CCCC2)NC(=O)[C@@H]2CCCN2C(=O)[C@H](CCc2ccc(C(F)(F)F)c(F)c2)NC(=O)CN(C)C(=O)[C@H](CC2CCCCC2)N(C)C(=O)CN(C)C(=O)CN(C)C1=O` [Compound 1533] (cyclo([Ac5c][NMeL][d(β3hA)][NMeL][Pra][Sar][Sar][NMeCha][Sar][hPhe(3-F,4-CF3)]P)) was 68 nM.
For `CC[C@H](C)[C@@H]1NC(=O)[C@H](CC(C)C)N(C)C(=O)C[C@@H](C)NC(=O)[C@H](C(C)C)N(C)C(=O)C2(CCCC2)NC(=O)[C@@H]2CCCN2C(=O)[C@H](CCc2ccc(C(F)(F)F)c(F)c2)NC(=O)CN(C)C(=O)[C@H](CC2CCCCC2)N(C)C(=O)CN(C)C(=O)CN(C)C1=O` [Compound 1534] (cyclo([Ac5c][NMeV][d(β3hA)][NMeL]I[Sar][Sar][NMeCha][Sar][hPhe(3-F,4-CF3)]P)), the IC50 stood at 62 nM.
With `CC[C@H](C)[C@@H]1NC(=O)[C@H](C)N(C)C(=O)C[C@@H](C)NC(=O)[C@H](C2CCCC2)N(C)C(=O)C2(CCCC2)NC(=O)[C@@H]2CCCN2C(=O)[C@H](CCc2ccc(C(F)(F)F)c(Cl)c2)NC(=O)[C@@H](C)N(C)C(=O)[C@H](CC2CCCCC2)N(C)C(=O)CN(C)C(=O)CN(C)C1=O` [Compound 1535] (cyclo([Ac5c][NMeGly(cPent)][d(β3hA)][NMeA]I[Sar][Sar][NMeCha][dNMeA][hPhe(3-Cl-4-CF3)]P)) the figure was 41 nM; with `CC[C@H](C)[C@@H]1NC(=O)[C@H](C)N(C)C(=O)C[C@@H](C)NC(=O)[C@H](C2CCCC2)N(C)C(=O)C2(CCCC2)NC(=O)[C@@H]2CCCN2C(=O)[C@H](CCc2ccc(C(F)(F)F)c(Cl)c2)NC(=O)[C@H]2CCCN2C(=O)[C@H](Cc2ccc(C)cc2)N(C)C(=O)[C@@H]2CCN2C(=O)[C@H](C)N(C)C1=O` [Compound 1540] (cyclo([Ac5c][NMeGly(cPent)][d(β3hA)][NMeA]I[NMeA][Aze][NMePhe(4-Me)][dP][hPhe(3-Cl-4-CF3)]P)), 230 nM; with `CC[C@H](C)[C@@H]1NC(=O)[C@H](CC(C)C)N(C)C(=O)C[C@@H](C(=O)N2CCCCC2)N(C)C(=O)[C@H](CC(C)C)N(C)C(=O)C(C)(C)NC(=O)[C@H](COCC(C)(C)O)N(C)C(=O)[C@H](CCc2ccc(C(F)(F)F)c(Cl)c2)NC(=O)CN(C)C(=O)[C@H](COCCC(C)C)N(C)C(=O)CN(C)C(=O)CN(C)C1=O` [Compound 1541] ([NMeL]I[Sar][Sar][NMeS](Isopentyl)[Sar][hPhe(3-Cl-4-CF3)][NMeS](CH2CMe2OH)[Aib][NMeL][NMeD]-Piperidide; lactam N-11), 4 nM.
As for `CC[C@H](C)[C@@H]1NC(=O)[C@H](CC(C)C)N(C)C(=O)C[C@@H](C)NC(=O)[C@H](C2CCCC2)N(C)C(=O)C2(CCCC2)NC(=O)[C@@H]2CCCN2C(=O)[C@H](CCc2ccc(C(F)(F)F)c(Cl)c2)NC(=O)[C@@H](C)N(C)C(=O)[C@H](Cc2ccc(C(F)(F)F)cc2)N(C)C(=O)CN(C)C(=O)CN(C)C1=O` [Compound 1542] (cyclo([Ac5c][NMeGly(cPent)][d(β3hA)][NMeL]I[Sar][Sar][NMePhe(4-CF3)][dNMeA][hPhe(3-Cl-4-CF3)]P)), the IC50 worked out at 170 nM.
The value for `CC[C@H](C)[C@@H]1NC(=O)[C@H](C)N(C)C(=O)C[C@@H](C)NC(=O)[C@H](C2CCCC2)N(C)C(=O)C2(CCCC2)NC(=O)[C@@H]2CCCN2C(=O)[C@H](CCc2ccc(C(F)(F)F)c(Cl)c2)NC(=O)[C@H]2CCCN2C(=O)[C@H](CC2CCCCC2)N(C)C(=O)CN(C)C(=O)CN(C)C1=O` [Compound 1543] (cyclo([Ac5c][NMeGly(cPent)][d(β3hA)][NMeA]I[Sar][Sar][NMeCha][dP][hPhe(3-Cl-4-CF3)]P)) was 160 nM; that for `CC[C@H](C)[C@@H]1NC(=O)[C@H](CC(C)C)N(C)C(=O)C[C@@H](C)NC(=O)[C@H](CC(C)C)N(C)C(=O)C2(CCCC2)NC(=O)[C@@H]2CCN2C(=O)[C@H](CCc2ccc(C(F)(F)F)c(F)c2)NC(=O)CN(C)C(=O)[C@H](CC2CCCCC2)N(C)C(=O)CN(C)C(=O)CN(C)C1=O` [Compound 1545] (cyclo([Ac5c][NMeL][d(β3hA)][NMeL]I[Sar][Sar][NMeCha][Sar][hPhe(3-F,4-CF3)][Aze])) was 42 nM; that for `CC[C@H](C)[C@@H]1NC(=O)[C@H](CC(C)C)N(C)C(=O)C[C@@H](C)NC(=O)[C@H](CC(C)C)N(C)C(=O)C(C)(C)NC(=O)[C@H](COCC(C)(C)O)N(C)C(=O)[C@H](CCc2ccc(C(F)(F)F)c(Cl)c2)NC(=O)CN(C)C(=O)[C@H](COCCC(C)C)N(C)C(=O)CN(C)C(=O)CN(C)C1=O` [Compound 1546] (cyclo([Aib][NMeL][d(β3hA)][NMeL]I[Sar][Sar][NMeS](Isopentyl)[Sar][hPhe(3-Cl-4-CF3)][NMeS](CH2CMe2OH))) was 40 nM.
With `CC[C@H](C)[C@@H]1NC(=O)[C@H](CC(C)C)N(C)C(=O)C[C@@H](C)NC(=O)[C@H](C(C)C)N(C)C(=O)C2(CCCC2)NC(=O)[C@@H]2CCCN2C(=O)[C@H](CCc2ccc(C(F)(F)F)c(Cl)c2)NC(=O)CN(C)C(=O)[C@H](Cc2cccc(C)c2)N(C)C(=O)CN(C)C(=O)CN(C)C1=O` [Compound 1547] (cyclo([Ac5c][NMeV][d(β3hA)][NMeL]I[Sar][Sar][NMePhe(3-Me)][Sar][hPhe(3-Cl-4-CF3)]P)) the figure was 22 nM; with `CC[C@H](C)[C@@H]1NC(=O)[C@H](CC(C)C)N(C)C(=O)C[C@@H](C(=O)N2CCCCC2)N(C)C(=O)[C@H](C(C)C)N(C)C(=O)C2(CCCC2)NC(=O)[C@@H]2CCCN2C(=O)[C@H](CCc2ccc(C(F)(F)F)c(Cl)c2)NC(=O)CN(C)C(=O)[C@H](CC2CCCCC2)N(C)C(=O)[C@@H]2CCN2C(=O)[C@H](CC2CCCC2)N(C)C1=O` [Compound 1552] ([NMeL]I[NMeAla(cPent)][Aze][NMeCha][Sar][hPhe(3-Cl-4-CF3)]P[Ac5c][NMeV][NMeD]-Piperidide; lactam N-11), 61 nM.

In general, IC50 refers to the concentration that inhibits the measured activity by half.
